In series [1] the target is T1, human CB2 receptor (CB2R) (Homo sapiens, UniProt P34972).
T1 construct: The coding region of human CB2R cDNA (Munro etc, Nature, 1993, 365, 61-65) was inserted; expressed in transfected cells
Nature of the series: Human CB2 receptor (CB2R) binding inhibition, [3H]CP55940, membranes of CB2R-expressing CHO cells. How it is done: (§1) The coding region of human CB2R cDNA (Munro etc, Nature, 1993, 365, 61-65) was inserted into the mammalian expression vector, pSVL SV40 Late Promoter Expression Vector (Amersham Pharmacia Biotech Inc.). The prepared vector was transfected into Chinese Hamster Ovary (CHO) cells with LipofectAMINE reagent (Gibco BRL) according to the manufacture's protocol, and the stable CB2R-expressing clones were selected.
(§2) The crude membrane fractions were prepared from the CB2R-expressing CHO cells. Receptor binding assay was performed by incubating the membranes with each test compound and [^3H]CP55940 (at a final concentration of 0.5 nM: NEN Life Science Products) in the assay buffer (50 mM Tris-HCl, 1 mM EDTA, 3 mM MgCl2, pH 7.4) containing 0.5% bovine serum albumin (BSA) for 2 h at 25° C. The incubation mixture was filtered through 1% polyethylenimine-treated GF/C glass filter and washed with 50 mM Tris-HCl (pH 7.4) containing 0.1% BSA. The radioactivity was then counted with a liquid scintillation counter.
(§3) For the receptor binding assay of human CB1 receptor (CB1R), the stable CB1R-expressing CHO cells were prepared as described above, and the binding assay was performed using their membrane fractions. As a consequence of these studies, the Ki values of each test compound for both cannabinoid receptors were determined, which were presented in Table.

The target of series [2] is T2, human CB1 receptor (CB1R) (Homo sapiens, UniProt P21554).
T2 construct: expressed in transfected cells
Nature of the series: Receptor binding assay of human CB1 receptor (CB1R), membranes of CB1R-expressing CHO cells. As for the experimental part:
as §1, §2, §3

In another series the target is T3, human CB2R (Homo sapiens, UniProt P34972).
T3 construct: The coding region of human CB2R cDNA (Munro etc, Nature, 1993, 365, 61-65) was inserted; expressed in transfected cells
Nature of the series: CB2R-mediated suppression of forskolin-stimulated cAMP synthesis in CHO cells expressing human CB2R. Format: cell-based. As for the experimental part: The CHO cells expressing human CB2R were incubated with test compounds for 15 min. After the incubation, forskolin (final concentration of 4 μM, Sigma) was added and the cells were incubated for 20 min at 37° C. The reaction was stopped by the addition of 1N HCl and the amount of cAMP in the cell supernatant was measured using an EIA kit (Amersham Pharmacia Biotech) according to the manufacture's protocol.
The antagonistic activity of each compound was also evaluated in this assay.

This note sets out measurements from patent publication US6916806B2, “Medicinal composition containing 1,3-thiazine derivative” (priority 2001, dated 2005).

A value given as a limit tells only on which side of the number the result lay.

T2 sequence (P21554 whole entry): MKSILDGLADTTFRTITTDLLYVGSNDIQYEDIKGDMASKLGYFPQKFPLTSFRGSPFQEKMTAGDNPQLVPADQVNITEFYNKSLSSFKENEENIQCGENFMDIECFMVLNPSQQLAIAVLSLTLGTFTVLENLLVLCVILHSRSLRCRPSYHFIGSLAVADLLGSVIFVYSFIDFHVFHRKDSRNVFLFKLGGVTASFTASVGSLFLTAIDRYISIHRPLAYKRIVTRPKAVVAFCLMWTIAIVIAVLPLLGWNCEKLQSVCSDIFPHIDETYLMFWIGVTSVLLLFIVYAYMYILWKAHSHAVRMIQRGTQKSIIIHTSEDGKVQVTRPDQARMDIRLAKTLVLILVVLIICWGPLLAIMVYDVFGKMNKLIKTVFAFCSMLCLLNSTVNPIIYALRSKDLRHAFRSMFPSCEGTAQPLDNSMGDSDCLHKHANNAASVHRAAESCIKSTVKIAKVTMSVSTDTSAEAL
T3 sequence (P34972 whole entry): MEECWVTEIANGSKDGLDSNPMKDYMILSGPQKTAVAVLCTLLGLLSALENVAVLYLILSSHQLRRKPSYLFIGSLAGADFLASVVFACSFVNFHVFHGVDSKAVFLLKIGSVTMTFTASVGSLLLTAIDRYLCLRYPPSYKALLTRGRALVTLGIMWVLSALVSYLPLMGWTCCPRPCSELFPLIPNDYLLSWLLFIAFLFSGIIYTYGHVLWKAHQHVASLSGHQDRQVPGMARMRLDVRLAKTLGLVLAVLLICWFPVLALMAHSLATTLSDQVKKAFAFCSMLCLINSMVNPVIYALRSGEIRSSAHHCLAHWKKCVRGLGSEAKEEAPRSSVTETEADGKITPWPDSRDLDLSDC
T1 sequence (P34972 whole entry): as above

Turning to `CC(C)c1ccccc1N=C1SCC(C)(C)CN1C(=S)SCC(=O)OC(C)(C)C` [Compound I-14], the results for the Ki in series [1] and in series [2] were 2 nM and > 5000 nM, respectively.

In turn, `C=CCSC(=S)N1CC2(CCOCC2)CSC1=Nc1ccccc1C(C)C` [Compound I-92] had a melting point of 73.5 to 75 °C. In series [1], the inhibitory constant (Ki) came to 6 nM. Moreover, the IC50 at human CB2R was < 0.2 nM. The molecule further yielded a Ki in series [2] of 1310 nM.

`COc1ccccc1N=C1SCC2(CCCC2)CN1C(=S)SCC(=O)OC(C)(C)C` [Compound I-80]: the Ki in series [1] was 2.2 nM; in series [2], > 5000 nM.

For the molecule `C=CCCSC(=S)N1CC(CC)(CC)CSC1=Nc1ccccc1C(C)C` [Compound I-46], the Ki in series [1] was 2 nM; in series [2], 3230 nM. The molecule also yielded an IC50 at human CB2R of 5.4 nM.

Molecule `CCOC(=O)CSC(=S)N1CC(CC)(CC)CSC1=Nc1ccccc1C(C)C` [Compound I-40] returned a Ki in series [1] of 0.5 nM.

Take `CCC1(CC)CSC(=Nc2ccccc2C(C)C)N(C(=S)SCC(=O)OC(C)(C)C)C1` [Compound I-42]: the Ki in series [1] is 0.3 nM; in series [2], > 5000 nM.

With `CCC1(CC)CSC(=Nc2ccccc2C(C)C)N(C(=S)SCC=C(C)C)C1` [Compound I-45], the values for the inhibitory constant (Ki) in series [1] and in series [2] were 1.2 nM and 386 nM, respectively.

In the case of `C=CCSC(=S)N1CC(CC)(CC)CSC1=Nc1ccccc1C(C)C` [Compound I-39], the inhibition constant (Ki) in series [1] was 2 nM; in series [2] it was 906 nM. The IC50 on human CB2R was 13.7 nM.

Molecule `C=CCSC(=S)N1CC2(CCCCC2)CSC1=Nc1ccc(CC)cc1` [Compound I-88] registered a melting point of 98 to 100 °C.

The molecule `CCC1(CC)CSC(=Nc2ccccc2C(C)C)N(C(=S)SCC(=O)OC(C)C)C1` [Compound I-41] displayed a Ki in series [1] of 1 nM.

Regarding `C=CCSC(=S)N1CC2(CCCC2)CSC1=Nc1ccccc1C(C)C` [Compound I-74], the Ki in series [1] amounted to 1.2 nM; in series [2], 704 nM. In addition, the IC50 at human CB2R came to 1.6 nM.

With `C=CCSC(=S)N1CC(CC)(CC)CSC1=Nc1ccccc1C(C)CC` (stereo not drawn) [Compound I-49], the results for the Ki in series [1] and in series [2] were 2.9 nM and 1120 nM, respectively. For the same molecule, it took 2.2 nM to reach half-maximal inhibition against human CB2R (IC50).

As to `CSC(=S)N1CC2(CCOCC2)CSC1=Nc1ccccc1C(C)C` [Compound I-93], the melting point was in the range of 127 to 128 °C. Also, in series [1], the affinity corresponds to a Ki of 3 nM. The molecule also had a concentration for half-maximal inhibition (IC50) at human CB2R of 0.6 nM. In series [2], this molecule gave an inhibitory constant (Ki) of 1540 nM.

`CC(C)OC(=O)CSC(=S)N1CC(C)(C)CSC1=Nc1ccccc1C(C)C` [Compound I-13]: the melting point was 95 to 96 °C. The molecule further came in with an inhibitory constant (Ki) in series [1] of 6 nM.

With `Cc1cc(CSC(=S)N2CC3(CCCC3)CSC2=Nc2ccccc2C(C)C)on1` [Compound I-78], the affinity in series [2] corresponds to a Ki of 1020 nM.

As for `CC=CCSC(=S)N1CC(CC)(CC)CSC1=Nc1ccccc1C(C)C` [Compound I-44], the Ki in series [1] turned out to be 1.1 nM; in series [2], 321 nM.
